This passage reports inhibition results from patent US20080255192A1, “Methods and Compositions for Selectin Inhibition” (Wyeth, priority 2007, published 2008).

The target of this assay is T1, P-selectin/PSGL-1 interaction (Homo sapiens, UniProt P16109).
T1 construct: comprised of the lectin and epidermal growth factor-like (EGF) domains expressed in CHO cells; made in house; host or cells: CHO cells (P-LE)
T1 sequence (P16109 42-198): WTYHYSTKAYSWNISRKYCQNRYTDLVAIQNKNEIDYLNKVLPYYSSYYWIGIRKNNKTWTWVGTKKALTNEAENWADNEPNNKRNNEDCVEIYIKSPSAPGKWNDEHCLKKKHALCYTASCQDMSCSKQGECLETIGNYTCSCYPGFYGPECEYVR
Nature of the assay: Biacore P-Selectin/PSGL-1 Inhibition Assay (surface plasmon resonance). Format: binding. To be noted: 250 uM test compound, 500 nM P.LE, immobilized PSGL-1 19ek, 10% DMSO, pH 7.4. The protocol:
Surface plasmon resonance assays were performed on a Biacore 3000 instrument (Biacore Inc. Piscataway, N.J.) at 25° C. at a flow rate of 30 μL/minute and each assay consisted of a 60-second equilibration, a 60-μL sample injection (kinject), and a 300-second dissociation.
A purified, monomeric, truncated form of human PSGL-1, “19ek”, that contained all the necessary P-selectin binding determinants (see Goetz, et al., J. Cell Biol., 1997, 137: 509-519; and Sako, et al., Cell, 1995, 83: 323-331) was biotinylated via amine chemistry (Sulfo-NHS-LC-Biotin, Peirce) at a unique C-terminal lysine residue (see Somers, et al., Cell, 2000, 103: 467-479) and immobilized on a Biacore SA sensor chip (Biacore Inc.), using an HBS-EP buffer (Biacore Inc.), and the target 600-700 RU. The coated chip was re-equilibrated with an HBS-P buffer (Biacore Inc.) to which 1 mM CaCl2 and 1 mM MgCl2 (both from Fisher) were added to ensure sufficient calcium for the calcium-dependent interaction between the receptor and the ligand.
Test compounds were incubated for 1 hour in a 1.1× Biacore assay buffer. Each solution was centrifuged through a 0.2 µm filter, using a 96-well plate format (Millipore). Glycyrrhizin tri-sodium salt (TCI) was prepared as a positive control in parallel with the test compounds, in the same manner described above.
A soluble recombinant truncated form of human P-selectin, P-LE, comprised of the lectin and epidermal growth factor-like (EGF) domains expressed in CHO cells (see Somers, et al., Cell, 2000, 103: 467-479) was added to each filtered test compound solution. Final concentrations of reagents were 500 nM P.LE, 250 or 500 μM test compound (depending on structure) or 1 mM glycyrrhizin, 10% DMSO, and 1× Biacore buffer ([…], 150 mM NaCl, 1 mM CaCl2, and 1 mM MgCl2 (all reagents from Fisher)), with a pH of 7.4. Compounds active at 250 μM were titrated to further define activity. Test samples were supplied to the Biacore instrument in a 96-well plate.
The Biacore raw data file was exported as a text file to an Excel spreadsheet, where the buffer blanks bracketing the samples were averaged for each Biacore instrument flow cell (Fc), and subtracted from the averaged uninhibited P.LE samples and from all the other samples. The reference signal from Fcl (uncoated) was then subtracted from its corresponding active (coated) signal for each injection, a process known as double referencing (see Myszka, J. Mol. Recognit., 1999, 12(5): 279-284). The percent inhibition of binding was calculated by dividing the reference-subtracted inhibited signal by the reference-subtracted uninhibited signal, subtracting this value from 1, and multiplying the resulting value by 100. The replicate percent inhibition values were averaged and expressed as the mean ±standard deviation. The inter-experiment standard deviation of calculated percent inhibitions in the Biacore assay was ±5.
For orientation: Surface plasmon resonance follows binding to a sensor surface in real time, without labels.
The inhibition is the drop in the measured response relative to a control, in per cent. In the case of `O=C(O)c1c(O)c(C2(c3ccc(Cl)cc3)CCC2)nc2c(C(F)(F)F)cccc12` [Compound 58, 2-(1-(4-chlorophenyl)cyclobutyl)-3-hydroxy-8-(trifluoromethyl)quinoline-4-carboxylic acid], the inhibition at 250 µM was not above 10%.

For `O=C(O)c1c(O)c(C2(c3ccsc3)CC2)nc2c(C(F)(F)F)cccc12` [Compound 59, 3-hydroxy-2-(1-(thiophen-3-yl)cyclopropyl)-8-(trifluoromethyl)quinoline-4-carboxylic acid], the inhibition at 250 µM is not above 10%.

Consider `O=C(O)c1c(O)c(C2(c3cccs3)CC2)nc2c(C(F)(F)F)cccc12` [Compound 60, 3-hydroxy-2-(1-(thiophen-2-yl)cyclopropyl)-8-(trifluoromethyl)quinoline-4-carboxylic acid], for which the inhibition at 250 µM was found to be 15%.

As to `O=C(O)c1c(O)c(C2(c3ccc(F)cc3)CC2)nc2c(C(F)(F)F)cccc12` [Compound 61, 2-(1-(4-fluorophenyl)cyclopropyl)-3-hydroxy-8-(trifluoromethyl)quinoline-4-carboxylic acid], at 250 µM the inhibition was 56%.

With `CC(C)c1cccc2c(C(=O)O)c(O)c(C3(c4ccc(F)cc4)CC3)nc12` [Compound 62, 2-(1-(4-fluorophenyl)cyclopropyl)-3-hydroxy-8-isopropylquinoline-4-carboxylic acid], the inhibition at 250 µM turned out to be 67%.

`O=C(O)c1c(O)c(C2(c3ccccc3C(F)(F)F)CC2)nc2c(C(F)(F)F)cccc12` [Compound 63, 3-hydroxy-8-(trifluoromethyl)-2-(1-(2-(trifluoromethyl)phenyl)cyclopropyl)quinoline-4-carboxylic acid] showed an inhibition at 250 µM of 17%.

`Cc1cc(C)c2nc(C3(c4ccccc4)CC3)c(O)c(C(=O)O)c2c1` [Compound 64, 3-hydroxy-6,8-dimethyl-2-(1-phenylcyclopropyl)quinoline-4-carboxylic acid] yielded an inhibition at 250 µM of 20%.

`CCc1cccc2c(C(=O)O)c(O)c(C3(c4ccc(F)cc4)CC3)nc12` [Compound 65, 8-ethyl-2-(1-(4-fluorophenyl)cyclopropyl)-3-hydroxyquinoline-4-carboxylic acid] returned an inhibition at 250 µM of 31%.

Consider `CCc1ccc2c(C(=O)O)c(O)c(C3(c4ccc(F)cc4)CC3)nc2c1` [Compound 66, 7-ethyl-2-(1-(4-fluorophenyl)cyclopropyl)-3-hydroxyquinoline-4-carboxylic acid], for which the inhibition at 250 µM was not above 10%.

As for `O=C(O)c1c(O)c(C2(c3ccc(F)cc3)CC2)nc2ccc(Cl)cc12` [Compound 67, 6-chloro-2-(1-(4-fluorophenyl)cyclopropyl)-3-hydroxyquinoline-4-carboxylic acid], the inhibition at 250 µM was not above 10%.

For `O=C(O)c1c(O)c(C2(c3ccc(F)cc3)CC2)nc2cc(Cl)ccc12` [Compound 68, 7-chloro-2-(1-(4-fluorophenyl)cyclopropyl)-3-hydroxyquinoline-4-carboxylic acid], the inhibition at 250 µM is not above 10%.

`Cc1cc(C)c2nc(C3(c4ccc(F)cc4)CC3)c(O)c(C(=O)O)c2c1` [Compound 69, 2-(1-(4-fluorophenyl)cyclopropyl)-3-hydroxy-6,8-dimethylquinoline-4-carboxylic acid] gave an inhibition at 250 µM of 11%.

In turn, `CCc1ccc2nc(C3(c4ccc(F)cc4)CC3)c(O)c(C(=O)O)c2c1` [Compound 70, 6-ethyl-2-(1-(4-fluorophenyl)cyclopropyl)-3-hydroxyquinoline-4-carboxylic acid] came in with an inhibition at 250 µM of 10%.

With `O=C(O)c1c(O)c(C2(c3ccc(F)cc3)CC2)nc2c(-c3ccsc3)cccc12` [Compound 71, 2-(1-(4-fluorophenyl)cyclopropyl)-3-hydroxy-8-(thiophen-3-yl)quinoline-4-carboxylic acid], at 250 µM the inhibition was 64%.

The compound `O=C(O)c1c(O)c(C2(c3ccc(F)cc3)CC2)nc2ccc(Br)cc12` [Compound 72, 6-bromo-2-(1-(4-fluorophenyl)cyclopropyl)-3-hydroxyquinoline-4-carboxylic acid] registered an inhibition at 250 µM of 12%.

Regarding `O=C(O)c1c(O)c(C2(c3ccc(F)cc3)CC2)nc2c(Cl)cccc12` [Compound 73, 8-chloro-2-(1-(4-fluorophenyl)cyclopropyl)-3-hydroxyquinoline-4-carboxylic acid], the inhibition at 250 µM is not above 10%.

On to `O=C(O)c1c(O)c(C2(c3ccc(F)cc3)CC2)nc2cc(Br)ccc12` [Compound 74, 7-bromo-2-(1-(4-fluorophenyl)cyclopropyl)-3-hydroxyquinoline-4-carboxylic acid], for which at 250 µM the inhibition was 10%.

The compound `O=C(O)c1c(O)c(C2(c3ccc(F)cc3)CC2)nc2c(Br)cccc12` [Compound 75, 8-bromo-2-(1-(4-fluorophenyl)cyclopropyl)-3-hydroxyquinoline-4-carboxylic acid] returned an inhibition at 250 µM not above 10%.

For the compound `O=C(O)c1c(O)c(C2(c3ccc(F)cc3)CC2)nc2c(C(O)(C(F)(F)F)C(F)(F)F)cccc12` [Compound 76, 2-(1-(4-fluorophenyl)cyclopropyl)-8-(1,1,1,3,3,3-hexafluoro-2-hydroxypropan-2-yl)-3-hydroxyquinoline-4-carboxylic acid], testing at 250 µM gave an inhibition of 43%.

For `O=C(O)c1c(O)c(C2(c3ccc(F)cc3)CC2)nc2c(-c3ccccc3)cccc12` [Compound 77], the inhibition at 250 µM was 37%.

Take `Cc1cccc2c(C(=O)O)c(O)c(C3(c4ccc(F)cc4)CC3)nc12` [Compound 78, 2-(1-(4-fluorophenyl)cyclopropyl)-3-hydroxy-8-methylquinoline-4-carboxylic acid]: 250 µM produced 10% inhibition.

For `COc1ccc2nc(C3(c4ccc(F)cc4)CC3)c(O)c(C(=O)O)c2c1` [Compound 79, 2-(1-(4-fluorophenyl)cyclopropyl)-3-hydroxy-6-methoxyquinoline-4-carboxylic acid], the inhibition at 250 µM was not above 10%.

Consider `O=C(O)c1c(O)c(C2(c3ccc(F)cc3)CC2)nc2c3c(ccc12)CCCC3` [Compound 80, 2-(1-(4-fluorophenyl)cyclopropyl)-3-hydroxy-7,8,9,10-tetrahydrobenzo[h]quinoline-4-carboxylic acid], for which the inhibition at 250 µM came out at 59%.

Compound `Cc1ccc2c(C(=O)O)c(O)c(C3(c4ccc(F)cc4)CC3)nc2c1C` [Compound 81, 2-(1-(4-fluorophenyl)cyclopropyl)-3-hydroxy-7,8-dimethylquinoline-4-carboxylic acid] gave an inhibition at 250 µM of 23%.

Consider `CCc1cccc2c(C(=O)O)c(O)c(C3(c4ccc(C)cc4)CC3)nc12` [Compound 82, 8-ethyl-2-(1-p-tolylcyclopropyl)-3-hydroxyquinoline-4-carboxylic acid], for which testing at 250 µM gave an inhibition of 38%.

Regarding `Cc1ccc(C2(c3nc4c(C)cccc4c(C(=O)O)c3O)CC2)cc1` [Compound 83, 8-methyl-2-(1-p-tolylcyclopropyl)-3-hydroxyquinoline-4-carboxylic acid], at 250 µM the inhibition was 12%.

Take `Cc1ccc(C2(c3nc4c(C)cc(C)cc4c(C(=O)O)c3O)CC2)cc1` [Compound 84, 3-hydroxy-6,8-dimethyl-2-(1-p-tolylcyclopropyl)quinoline-4-carboxylic acid]: the inhibition at 250 µM is 11%.

Consider `Cc1ccc(C2(c3nc4c(C(O)(C(F)(F)F)C(F)(F)F)cccc4c(C(=O)O)c3O)CC2)cc1` [Compound 85, 8-(1,1,1,3,3,3-hexafluoro-2-hydroxypropan-2-yl)-3-hydroxy-2-(1-p-tolylcyclopropyl)quinoline-4-carboxylic acid], for which the inhibition at 250 µM came out at 59%.

On to `Cc1ccc(C2(c3nc4c(C(C)C)cccc4c(C(=O)O)c3O)CC2)cc1` [Compound 86, 3-hydroxy-8-isopropyl-2-(1-p-tolylcyclopropyl)quinoline-4-carboxylic acid], for which the inhibition at 250 µM is 54%.
